Reference: PubChem BioAssay AID467 (The Scripps Research Institute Molecular Screening Center, 2006)
pEC50: −log10 of the molar value. The source made the active and inactive calls. How the calls were made is not given here.

system: parental cell line counter screen, S1P1 agonist assay readout; assay: signal in parental cells, counter-screen for S1P1 agonist project (AID 467);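 further: agonist potency measured against forskolin stimulation plus an EC20 level of SEW2871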

| Structure (SMILES) | EC50 | pEC50 |
| --- | --- | --- |
| O=C(Nc1nc(-c2nc3ccccc3s2)cs1)c1ccc(S(=O)(=O)N2CCOCC2)cc1 | 27.5 µM (inactive) |  |
| CCOC(=O)CN(C(=O)CSc1nnc(-c2cccc(OC)c2)o1)c1ccc(F)cc1 | > 95.1 µM (inactive) |  |
| Cc1cc(N2CCN(C(c3ccccc3)c3ccccc3)CC2)n2ncnc2n1 | > 30 µM (inactive) |  |
| Cc1csc(NC(=O)c2nc(-c3ccccc3)n(-c3ccccc3)n2)n1 | > 95.1 µM (inactive) |  |
| C=C(C)COc1ccc(-c2nc(N)nc(C)c2Oc2ccccc2OC)c(O)c1 | > 10 µM (inactive) |  |
| CCn1nc(-c2ccccc2)nc2c(=O)n(C)c(=O)nc1-2 |  | 5.68 |
| CCc1ccc2oc(-c3cc(N)cc(C)c3O)nc2c1 | > 95.1 µM (inactive) |  |
| CCCC(=O)Nc1ccc(-c2nc3cc(C)c(C)cc3o2)cc1 | > 95.1 µM (inactive) |  |
| O=S1(=O)C=C(Sc2nc3cc(Cl)ccc3o2)c2ccccc21 |  | 5.20 |
| COc1ccc(S(=O)(=O)Cc2ccc(C(=O)N3CCN(c4cccc(C)c4C)CC3)o2)cc1 | > 30 µM (inactive) |  |
| CCOc1cc(-c2noc(-c3cccnc3)n2)ccc1OC | > 95.1 µM (inactive) |  |
| Nn1c(Nc2ccccc2)nc2sc3c(c2c1=O)CCC3 | > 30 µM (inactive) |  |
| Cc1cc(C)n2nc(SCC(=O)c3cc(C)n(-c4cc(C)on4)c3C)nc2n1 | 63.5 µM (inactive) |  |
| COc1ccc(-c2noc(-c3cc(C)cc(C)c3)n2)cc1OC | > 95.1 µM (inactive) |  |
| Cc1cc(C(=O)Nc2sc(C)c(-c3ccc(F)cc3)c2C(N)=O)no1 | > 95.1 µM (inactive) |  |
| COC(=O)c1ccc(OCC(O)Cn2nnc3ccccc32)cc1 (stereo not drawn) | > 95.1 µM (inactive) |  |
| Cc1ccsc1C(=O)OCC(=O)c1cc(C)n(CC2CCCO2)c1C (stereo not drawn) | > 95.1 µM (inactive) |  |
| Cc1ccc(S(=O)(=O)Nc2ccc3ncccc3c2)cc1 | > 30 µM (inactive) |  |
| CC(C)Cc1cc(C(=O)Nc2sc3c(c2C#N)CCCC3)no1 | > 95.1 µM (inactive) |  |
| CCOC(=O)Cc1csc(NC(=O)c2ccc(Br)s2)n1 | 47.9 µM (inactive) |  |
| Cc1cc(C(=O)CN2C(=O)c3ccccc3C2=O)c(C)n1Cc1cccs1 | > 95.1 µM (inactive) |  |
| C=CCn1c(SCC(=O)c2cccs2)nc2sc(CC)cc2c1=O | 58.6 µM (inactive) |  |
| O=C(Nc1ccc(Cl)cc1)N1CCC(c2nc(-c3ccc(F)cc3)no2)CC1 | 20 µM (inactive) |  |
| CC(C)OCCCNc1ncnc2c1[nH]c1ccccc12 | 43 µM (inactive) |  |
| CCCCOc1ccc(S(=O)(=O)Nc2cc(OC)ccc2OC)cc1 | > 30 µM (inactive) |  |

| Structure (SMILES) | EC50 | pEC50 |
| --- | --- | --- |
| COc1ccc(C(c2c(O)ccc3ccccc23)N2CCOCC2)c(OC)c1 (stereo not drawn) |  | 5.84 |
| O=C(C1CCN(S(=O)(=O)c2cccc3cccnc23)CC1)N1CCN(c2ccc(Cl)cc2)CC1 | 38.3 µM (inactive) |  |
| COc1cc(C(=O)N2CCN(S(=O)(=O)c3ccc(C)cc3)CC2)ccc1OCc1c(C)noc1C | > 95.1 µM (inactive) |  |
| COc1ccc(C(=O)C(CN2CCOCC2)c2ccccc2)cc1F (stereo not drawn) |  | 5.09 |
| Cc1cc(C(=O)CSc2nnnn2C)c(C)n1-c1cccc(F)c1 | > 95.1 µM (inactive) |  |
| Nc1ccc(N2CCOCC2)c(Cl)c1 | > 95.1 µM (inactive) |  |
| C/C(N)=C(/C#N)C(=O)CSc1nc2cc(Cl)ccc2s1 | 49.5 µM (inactive) |  |
| O=C(CCN1CCc2ccccc2CC1)c1ccc2c(c1)OCCO2 |  | 5.32 |
| Cc1cc(/C=N/n2cnnc2)c(C)n1-c1ccc(OCc2ccccc2F)cc1 |  | 5.13 |
| CC(C)Cn1c(N)c(C(=O)CSc2ccc3c(c2)OCCO3)c(=O)n(C)c1=O | 88.5 µM (inactive) |  |
| O=S(=O)(NCc1ccncc1)c1ccc(Br)s1 | > 95.1 µM (inactive) |  |
| COc1ccccc1-c1nc(-c2cccc(C)c2)no1 | > 95.1 µM (inactive) |  |
| c1ccc(CSc2nnc(-c3c[nH]c4ccccc34)o2)cc1 | 41.4 µM (inactive) |  |
| COc1cc(CSc2nnnn2-c2ccc(C)cc2)cc(OC)c1OC | > 30 µM (inactive) |  |
| CCC(=NCc1ccc2c(c1)OCO2)c1c(O)n(C2CCCCC2)c(=O)[nH]c1=O | 26.6 µM (inactive) |  |
| CCC(NC(=O)Nc1nnc(C(F)(F)F)s1)(C(F)(F)F)C(F)(F)F | > 95.1 µM (inactive) |  |
| COc1ccc(CCNc2c(C)c(C)nc3ncnn23)cc1 | 43.4 µM (inactive) |  |
| Fc1ccc2[nH]c3c(N4CCN(Cc5ccc6c(c5)OCO6)CC4)ncnc3c2c1 |  | 5.09 |
| Cn1nc(CC(=O)Nc2ccc3c(c2)OCCO3)c2ccccc2c1=O | > 30 µM (inactive) |  |
| COc1ccc(-c2cn3c(C)c(C(=O)N4CCCc5ccccc54)sc3n2)cc1 | > 95.1 µM (inactive) |  |
| CN(C)c1oc(-c2ccc(OCc3ccccc3)cc2)nc1C#N | > 95.1 µM (inactive) |  |
| CC(C)(C)C1CCC2(CC1)C(C#N)=C(SCC(=O)Nc1ccccc1)NC(=O)C2C#N (stereo not drawn) |  | 5.15 |
| O=C(Nc1cccc(C(F)(F)F)c1)C1CCCN1S(=O)(=O)c1cccc2cccnc12 (stereo not drawn) | > 30 µM (inactive) |  |
| O=C(Cc1c[nH]c2ccccc12)N1CCc2ccccc21 | > 95.1 µM (inactive) |  |
| Cc1nn(C(=O)c2cccs2)c(N)c1-c1ccccc1 | > 30 µM (inactive) |  |

| Structure (SMILES) | EC50 | pEC50 |
| --- | --- | --- |
| CC(C)c1ccc2oc(-c3cc(N)ccc3O)nc2c1 | > 30 µM (inactive) |  |
| CCCn1c(CNc2ccc(Br)cc2)nc2ccccc21 | 38.1 µM (inactive) |  |
| Cc1nn(Cc2ccccc2)c(C)c1C(=O)OCC(=O)c1cc(C)n(C2CC2)c1C | > 30 µM (inactive) |  |
| O=S1(=O)C=C(Sc2nnc(-c3ccccc3)o2)c2ccccc21 |  | 5.50 |
| CCOC(=O)Nc1ccc2c(c1)N(C(=O)CCN(C)C)c1ccccc1S2 | > 10 µM (inactive) |  |
| Cc1csc(NC(=O)C(Cc2ccccc2)n2cccc2)n1 (stereo not drawn) | > 30 µM (inactive) |  |
| Cc1nc2ncnn2c(N2CCN(c3cccc(C(F)(F)F)c3)CC2)c1C | > 30 µM (inactive) |  |
| O=C(CSC1=NCCS1)Nc1ccnc2ccccc12 | 11.1 µM (inactive) |  |
| CCOc1ccc(-c2nnc(-c3ccco3)o2)cc1OCC | > 95.1 µM (inactive) |  |
| Fc1ccc2[nH]c3c(N4CCN(c5ccccc5)CC4)ncnc3c2c1 | 18.5 µM (inactive) |  |
| N#Cc1nc(-c2ccc(OCc3ccccc3)cc2)oc1NCc1cccnc1 | > 95.1 µM (inactive) |  |
| c1ccc(-c2ccc(-c3nc(-c4cccnc4)no3)cc2)cc1 | > 95.1 µM (inactive) |  |
| CN(C)S(=O)(=O)c1ccc(C(=O)Nc2nc(-c3cccs3)cs2)cc1 | > 95.1 µM (inactive) |  |
| COc1cccc(-c2nnc3sc(C4CCCCC4)nn23)c1 | 44.2 µM (inactive) |  |
| O=C1C2C3C=CC(CO)(O3)C2C(=O)N1c1ccccc1-c1ccccc1 (stereo not drawn) |  | 5.65 |
| Cn1c(-c2c(N)n(C3CCCC3)c3nc4ccccc4nc23)nc2ccccc21 |  | 5.71 |
| Cc1cc(C)cc(-c2nc(-c3ccncc3)no2)c1 | > 95.1 µM (inactive) |  |
| CC(C)Cn1c(=O)c(C(=O)Nc2ccccc2S(N)(=O)=O)c(O)c2ccccc21 | 16.3 µM (inactive) |  |
| CCOC(=O)c1oc2cc(O)c(CC)cc2c(=O)c1-c1ccc2c(c1)OCCO2 | > 30 µM (inactive) |  |
| CCOC(=O)c1ccc2nc(NC(=O)c3ccco3)sc2c1 | > 95.1 µM (inactive) |  |
| Nc1nonc1C(=O)NCCNCc1cc(Br)ccc1OCc1ccc(F)cc1 | 30.5 µM (inactive) |  |
| COc1ccccc1OCCCCCc1c(C)n[nH]c1C | 57.2 µM (inactive) |  |
| O=C(NCc1ccccc1)N1CCN(c2ccc(Cl)c(Cl)c2)CC1 | > 95.1 µM (inactive) |  |
